One series deals with Ephrin type-A receptor 2 (Mus musculus, UniProt Q03145). In words: Displacement of biotinylated ephrin-A1-Fc from recombinant mouse c-terminal His6-tagged EphA2 Fc (Ala22 to Ala535 residues) preincubated for 1 hr followed by ephrin-A1-FC addition and measured after 4 hrs by ELISA. On the technique in general: An ELISA detects its analyte on a solid surface through an enzyme-linked reagent.

The next series deals with PC-3. As to the kind of experiment: Cytotoxicity against human PC3 cells after 2 hrs by LDH assay. The format is cell-based. The following applies: pc-3, 2 h.
The subject of another series is Chorioallantoic membrane. As to the kind of experiment: Antiangiogenic activity in Leghorn chicken fertilized egg chorioallantoic membrane assessed as reduction in unstimulated neovascularization at 10 uM measured after 3 days by CAM assay. Type of series: functional, tissue-based. The following applies: Gallus gallus, time 3.0 day.

Active and inactive are the calls of the source. The rule behind the calls is not given here.

A word on the IC50: it is the point on the concentration scale where inhibition reaches its midpoint.

Chain of Ephrin type-A receptor 2 (Q03145 whole entry): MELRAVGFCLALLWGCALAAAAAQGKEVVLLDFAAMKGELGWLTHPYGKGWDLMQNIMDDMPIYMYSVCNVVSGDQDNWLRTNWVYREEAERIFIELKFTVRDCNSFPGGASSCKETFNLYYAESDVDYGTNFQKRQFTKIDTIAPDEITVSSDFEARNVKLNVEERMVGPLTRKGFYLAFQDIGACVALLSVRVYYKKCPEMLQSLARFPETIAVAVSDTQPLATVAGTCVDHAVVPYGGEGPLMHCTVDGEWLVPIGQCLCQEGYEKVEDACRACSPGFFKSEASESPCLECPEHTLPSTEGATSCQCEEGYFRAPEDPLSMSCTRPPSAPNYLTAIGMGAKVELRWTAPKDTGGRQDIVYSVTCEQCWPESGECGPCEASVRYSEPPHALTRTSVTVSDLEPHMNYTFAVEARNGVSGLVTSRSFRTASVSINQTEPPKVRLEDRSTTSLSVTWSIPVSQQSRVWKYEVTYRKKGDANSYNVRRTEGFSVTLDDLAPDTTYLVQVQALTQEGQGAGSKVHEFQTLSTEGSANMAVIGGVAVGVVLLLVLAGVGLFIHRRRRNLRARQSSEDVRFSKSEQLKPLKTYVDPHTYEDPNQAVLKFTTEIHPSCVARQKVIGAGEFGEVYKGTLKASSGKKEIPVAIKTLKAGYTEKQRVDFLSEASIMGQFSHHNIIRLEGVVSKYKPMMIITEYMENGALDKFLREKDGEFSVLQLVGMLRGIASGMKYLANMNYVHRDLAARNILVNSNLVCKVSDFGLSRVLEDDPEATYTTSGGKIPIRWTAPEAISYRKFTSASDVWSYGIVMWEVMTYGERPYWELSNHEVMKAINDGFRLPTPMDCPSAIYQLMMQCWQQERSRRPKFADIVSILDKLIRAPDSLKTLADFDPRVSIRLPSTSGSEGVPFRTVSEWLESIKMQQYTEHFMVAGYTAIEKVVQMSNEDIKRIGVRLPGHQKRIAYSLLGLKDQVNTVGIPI

In the case of `CCNC(=O)O[C@@H]1CC[C@@]2(C)[C@H](CC[C@@H]3[C@@H]2CC[C@]2(C)[C@@H]([C@H](C)CCC(=O)O)CC[C@@H]32)C1`, at Ephrin type-A receptor 2, the IC50 is 30 µM. As to `CCCCCCCCNC(=O)O[C@@H]1CC[C@@]2(C)[C@H](CC[C@@H]3[C@@H]2CC[C@]2(C)[C@@H]([C@H](C)CCC(=O)O)CC[C@@H]32)C1`, the IC50 on Ephrin type-A receptor 2 came to 4.5 µM.

Regarding `C[C@H](CCC(=O)O)[C@H]1CC[C@H]2[C@@H]3CC[C@@H]4C[C@H](OC(=O)NC5CCCCC5)CC[C@]4(C)[C@H]3CC[C@]12C`, at Ephrin type-A receptor 2, the half-maximal inhibitory concentration (IC50) came out at 2.7 µM. On to `C[C@H](CCC(=O)O)[C@H]1CC[C@H]2[C@@H]3CC[C@@H]4C[C@H](OC(N)=O)CC[C@]4(C)[C@H]3CC[C@]12C`, for which the concentration for half-maximal inhibition (IC50) at Ephrin type-A receptor 2 came out at 17 µM.

Turning to `CCCCNC(=O)O[C@@H]1CC[C@@]2(C)[C@H](CC[C@@H]3[C@@H]2CC[C@]2(C)[C@@H]([C@H](C)CCC(=O)O)CC[C@@H]32)C1`, the 50% inhibitory concentration (IC50) at Ephrin type-A receptor 2 worked out at 3.7 µM. On the same count and under the same terms, the same measure for `C[C@H](CCC(=O)O)[C@H]1CC[C@H]2[C@@H]3CC[C@@H]4C[C@H](OC(=O)Nc5ccccc5)CC[C@]4(C)[C@H]3CC[C@]12C`: 38 µM. In the case of `C[C@H](CCC(=O)N[C@H](CC(=O)O)Cc1c[nH]c2ccccc12)[C@H]1CC[C@H]2[C@@H]3CC[C@@H]4C[C@H](OC(=O)NC5CCCCC5)CC[C@]4(C)[C@H]3CC[C@]12C`, the concentration for half-maximal inhibition (IC50) on Ephrin type-A receptor 2 is 1.2 µM. Moreover, the Activity result in the series with PC-3 was “Non-Toxic”.

For the compound `C[C@H](CCC(=O)O)[C@H]1CC[C@H]2[C@@H]3CC[C@@H]4C[C@@H](OC(N)=O)CC[C@]4(C)[C@H]3CC[C@]12C`, the IC50 at Ephrin type-A receptor 2 was found to be 9.1 µM.

As for `CCCCCCNC(=O)O[C@@H]1CC[C@@]2(C)[C@H](CC[C@@H]3[C@@H]2CC[C@]2(C)[C@@H]([C@H](C)CCC(=O)N[C@H](CC(=O)O)Cc4c[nH]c5ccccc45)CC[C@@H]32)C1`, the half-maximal inhibitory concentration (IC50) on Ephrin type-A receptor 2 turned out to be 1.5 µM. The Activity entry with PC-3 was “Non-Toxic”.

Consider `CC(C)NC(=O)O[C@@H]1CC[C@@]2(C)[C@H](CC[C@@H]3[C@@H]2CC[C@]2(C)[C@@H]([C@H](C)CCC(=O)N[C@H](CC(=O)O)Cc4c[nH]c5ccccc45)CC[C@@H]32)C1`, for which the 50% inhibitory concentration (IC50) at Ephrin type-A receptor 2 is 7.1 µM. `CCCCCCCCNC(=O)O[C@@H]1CC[C@@]2(C)[C@H](CC[C@@H]3[C@@H]2CC[C@]2(C)[C@@H]([C@H](C)CCC(=O)N[C@H](CC(=O)O)Cc4c[nH]c5ccccc45)CC[C@@H]32)C1`: on Ephrin type-A receptor 2, the half-inhibitory concentration (IC50) came out at 15 µM.

Turning to `CCCCNC(=O)O[C@@H]1CC[C@@]2(C)[C@H](CC[C@@H]3[C@@H]2CC[C@]2(C)[C@@H]([C@H](C)CCC(=O)N[C@H](CC(=O)O)Cc4c[nH]c5ccccc45)CC[C@@H]32)C1`, the half-inhibitory concentration (IC50) on Ephrin type-A receptor 2 is 1.1 µM. Moreover, the Activity result in the series with PC-3 is “Non-Toxic”. Turning to `CC(C)NC(=O)O[C@@H]1CC[C@@]2(C)[C@H](CC[C@@H]3[C@@H]2CC[C@]2(C)[C@@H]([C@H](C)CCC(=O)O)CC[C@@H]32)C1`, the IC50 on Ephrin type-A receptor 2 was 12 µM. As for `C[C@H](CCC(=O)N[C@H](CC(=O)O)Cc1c[nH]c2ccccc12)[C@H]1CC[C@H]2[C@@H]3CC[C@@H]4C[C@H](OC(N)=O)CC[C@]4(C)[C@H]3CC[C@]12C`, the IC50 at Ephrin type-A receptor 2 was 1.2 µM. Further, in the series with Chorioallantoic membrane, the result was inactive. In the series on PC-3, the Activity entry is “Non-Toxic”. Consider `CCCCCCNC(=O)O[C@@H]1CC[C@@]2(C)[C@H](CC[C@@H]3[C@@H]2CC[C@]2(C)[C@@H]([C@H](C)CCC(=O)O)CC[C@@H]32)C1`, for which, on Ephrin type-A receptor 2, the IC50 was 3.3 µM. In the case of `C[C@H](CCC(=O)N[C@H](CC(=O)O)Cc1c[nH]c2ccccc12)[C@H]1CC[C@H]2[C@@H]3CC[C@@H]4C[C@H](OC(=O)Nc5ccccc5)CC[C@]4(C)[C@H]3CC[C@]12C`, the half-maximal inhibitory concentration (IC50) on Ephrin type-A receptor 2 was found to be 5.5 µM. Same read-out and setting: the same measure for `C[C@H](CCC(=O)N[C@H](CC(=O)O)Cc1c[nH]c2ccccc12)[C@H]1CC[C@H]2[C@@H]3CC[C@@H]4C[C@@H](OC(N)=O)CC[C@]4(C)[C@H]3CC[C@]12C`: 5.2 µM.
